Assay results from ChEMBL document CHEMBL4138123, “Design, synthesis and biological evaluation of novel pyrazolochalcones as potential modulators of PI3K/Akt/mTOR pathway and inducers of apoptosis in breast cancer cells” (Eur J Med Chem, 2017).

Tests used:
Type in all cases: functional
HL-60(TB) [1] = experiment: Cytotoxicity against human HL-60(TB) cells assessed as growth inhibition after 48 hrs by sulforhodamine B assay; details: HL-60, 48 h
HCC 2998 = experiment: Cytotoxicity against human HCC2998 cells assessed as growth inhibition after 48 hrs by sulforhodamine B assay; details: HCC 2998, 48 h
HCT-15 = experiment: Cytotoxicity against human HCT15 cells assessed as growth inhibition after 48 hrs by sulforhodamine B assay; details: HCT-15, 48 h
KM12 [2] = experiment: Cytotoxicity against human KM12 cells assessed as growth inhibition after 48 hrs by sulforhodamine B assay; details: KM12, 48 h
SNB-19 = experiment: Cytotoxicity against human SNB19 cells assessed as growth inhibition after 48 hrs by sulforhodamine B assay; details: SNB-19, 48 h; for CC50: read-out: LC50 (the source's name)
UACC-257 [3] = experiment: Cytotoxicity against human UACC257 cells assessed as growth inhibition after 48 hrs by sulforhodamine B assay; details: UACC-257, 48 h
SN12C = experiment: Cytotoxicity against human SN12C cells assessed as growth inhibition after 48 hrs by sulforhodamine B assay
OVCAR-5 = experiment: Cytotoxicity against human OVCAR5 cells assessed as cell growth at 0.01 uM after 48 hrs by sulforhodamine B assay relative to control; details: OVCAR-5, 48 h, read-out: Activity
Malme-3M = experiment: Cytotoxicity against human MALME-3M cells assessed as cell growth at 0.01 uM after 48 hrs by sulforhodamine B assay relative to control; details: read-out: Activity
NCI-H522 [4] = experiment: Cytotoxicity against human NCI-H522 cells assessed as cell growth at 0.01 uM after 48 hrs by sulforhodamine B assay relative to control; details: NCI-H522, 48 h, read-out: Activity
RXF 393 = experiment: Cytotoxicity against human RXF393 cells assessed as cell growth at 0.01 uM after 48 hrs by sulforhodamine B assay relative to control; details: RXF 393, 48 h, read-out: Activity
Hs-578T [5] = experiment: Cytotoxicity against human Hs 578T cells assessed as cell growth at 0.01 uM after 48 hrs by sulforhodamine B assay relative to control; details: read-out: Activity
K562 [6] = experiment: Cytotoxicity against human K562 cells assessed as cell growth at 0.1 uM after 48 hrs by sulforhodamine B assay relative to control; details: K562, 48 h, read-out: Activity
HCT-116 = experiment: Cytotoxicity against human HCT116 cells assessed as cell growth at 0.1 uM after 48 hrs by sulforhodamine B assay relative to control; details: HCT-116, 48 h, read-out: Activity
SF-268 = experiment: Cytotoxicity against human SF268 cells assessed as cell growth at 0.1 uM after 48 hrs by sulforhodamine B assay relative to control; details: SF-268, 48 h, read-out: Activity
ACHN = experiment: Cytotoxicity against human ACHN cells assessed as cell growth at 0.1 uM after 48 hrs by sulforhodamine B assay relative to control; details: read-out: Activity
PC-3 = experiment: Cytotoxicity against human PC3 cells assessed as cell growth at 0.1 uM after 48 hrs by sulforhodamine B assay relative to control; details: PC-3, 48 h, read-out: Activity
KM12 [7] = experiment: Cytotoxicity against human KM12 cells assessed as cell growth at 1 uM after 48 hrs by sulforhodamine B assay relative to control; details: KM12, 48 h, read-out: Activity
HL-60(TB) [8] = experiment: Cytotoxicity against human HL-60(TB) cells assessed as cell growth at 10 uM after 48 hrs by sulforhodamine B assay relative to control; details: HL-60, 48 h, read-out: Activity
NCI-H322M = experiment: Cytotoxicity against human NCI-H322M cells assessed as cell growth at 10 uM after 48 hrs by sulforhodamine B assay relative to control; details: read-out: Activity
UACC-62 [9] = experiment: Cytotoxicity against human UACC62 cells assessed as cell growth at 10 uM after 48 hrs by sulforhodamine B assay relative to control; details: UACC-62, 48 h, read-out: Activity
OVCAR-8 [10] = experiment: Cytotoxicity against human OVCAR8 cells assessed as cell growth at 10 uM after 48 hrs by sulforhodamine B assay relative to control; details: OVCAR-8, 48 h, read-out: Activity
A498 [11] = experiment: Cytotoxicity against human A498 cells assessed as cell growth at 10 uM after 48 hrs by sulforhodamine B assay relative to control; details: A498, 48 h, read-out: Activity
DU-145 = experiment: Cytotoxicity against human DU145 cells assessed as cell growth at 10 uM after 48 hrs by sulforhodamine B assay relative to control; details: DU-145, 48 h, read-out: Activity
MDA-MB-231 = experiment: Cytotoxicity against human MDA-MB-231 cells assessed as cell growth at 10 uM after 48 hrs by sulforhodamine B assay relative to control; details: MDA-MB-231, 48 h, read-out: Activity
K562 [12] = experiment: Cytotoxicity against human K562 cells assessed as cell growth at 100 uM after 48 hrs by sulforhodamine B assay relative to control; details: K562, 48 h, read-out: Activity
NCI-H226 = experiment: Cytotoxicity against human NCI-H226 cells assessed as cell growth at 100 uM after 48 hrs by sulforhodamine B assay relative to control; details: NCI-H226, 48 h, read-out: Activity
NCI-H23 = experiment: Cytotoxicity against human NCI-H23 cells assessed as cell growth at 100 uM after 48 hrs by sulforhodamine B assay relative to control; details: NCI-H23, 48 h, read-out: Activity
NCI-H522 [13] = experiment: Cytotoxicity against human NCI-H522 cells assessed as cell growth at 100 uM after 48 hrs by sulforhodamine B assay relative to control; details: NCI-H522, 48 h, read-out: Activity
MDA-MB-435 = experiment: Cytotoxicity against human MDA-MB-435 cells assessed as cell growth at 100 uM after 48 hrs by sulforhodamine B assay relative to control; details: MDA-MB-435, 48 h, read-out: Activity
UACC-257 [14] = experiment: Cytotoxicity against human UACC257 cells assessed as cell growth at 100 uM after 48 hrs by sulforhodamine B assay relative to control; details: UACC-257, 48 h, read-out: Activity
UACC-62 [15] = experiment: Cytotoxicity against human UACC62 cells assessed as cell growth at 100 uM after 48 hrs by sulforhodamine B assay relative to control; details: UACC-62, 48 h, read-out: Activity
OVCAR-8 [16] = experiment: Cytotoxicity against human OVCAR8 cells assessed as cell growth at 100 uM after 48 hrs by sulforhodamine B assay relative to control; details: OVCAR-8, 48 h, read-out: Activity
NCI/ADR-RES = experiment: Cytotoxicity against human NCI/ADR-RES cells assessed as cell growth at 100 uM after 48 hrs by sulforhodamine B assay relative to control; details: read-out: Activity
A498 [17] = experiment: Cytotoxicity against human A498 cells assessed as cell growth at 100 uM after 48 hrs by sulforhodamine B assay relative to control; details: A498, 48 h, read-out: Activity
Hs-578T [18] = experiment: Cytotoxicity against human Hs 578T cells assessed as cell growth at 100 uM after 48 hrs by sulforhodamine B assay relative to control; details: read-out: Activity

`COc1cc(C(=O)/C=C/c2cc(-c3ccc4c(c3)OCO4)n[nH]2)cc(OC)c1OC` gave a GI50 (HL-60(TB) [1]) of 2.17 µM, an LC50 (HL-60(TB) [1]) greater than 100 µM and a TGI (HL-60(TB) [1]) of 6.49 µM. For the same compound, the GI50 (HCC 2998) was 2.02 µM, the LC50 (HCC 2998) was 8.23 µM and the TGI (HCC 2998) was 4.07 µM. It also gave a GI50 (HCT-15) of 1.95 µM, an LC50 (HCT-15) greater than 100 µM and a TGI (HCT-15) of 6.75 µM. The GI50 (KM12 [2]) was 1.86 µM, the LC50 (KM12 [2]) was 7.97 µM and the TGI (KM12 [2]) was 3.85 µM. The GI50 (SNB-19) was 2.34 µM, the TGI (SNB-19) was 11.7 µM and the CC50 (SNB-19) was 35.6 µM. It also gave a GI50 (UACC-257 [3]) of 2.95 µM, an LC50 (UACC-257 [3]) of 32 µM and a TGI (UACC-257 [3]) of 9.46 µM. The GI50 (SN12C) was 2.26 µM, the LC50 (SN12C) was 23.4 µM and the TGI (SN12C) was 6.28 µM. For the same compound, the growth at 0.01 µM (OVCAR-5) was 98%, the growth at 0.01 µM (Malme-3M) was 94% and the growth at 0.01 µM (NCI-H522 [4]) was 97%. It also gave a growth at 0.01 µM (RXF 393) of 93%, a growth at 0.01 µM (Hs-578T [5]) of 92% and a growth at 0.1 µM (K562 [6]) of 84%. It also gave a growth at 0.1 µM (HCT-116) of 100%, a growth at 0.1 µM (SF-268) of 96% and a growth at 0.1 µM (ACHN) of 103%. The growth at 0.1 µM (PC-3) was 95%, the growth at 1 µM (KM12 [7]) was 93% and the growth at 10 µM (HL-60(TB) [8]) was -20%. For the same compound, the growth at 10 µM (NCI-H322M) was -22%, the growth at 10 µM (UACC-62 [9]) was -62% and the growth at 10 µM (OVCAR-8 [10]) was -23%. For the same compound, the growth at 10 µM (A498 [11]) was -39%, the growth at 10 µM (DU-145) was -4% and the growth at 10 µM (MDA-MB-231) was -22%. It also gave a growth at 100 µM (K562 [12]) of 5%, a growth at 100 µM (NCI-H226) of -46% and a growth at 100 µM (NCI-H23) of -83%. It also gave a growth at 100 µM (NCI-H522 [13]) of -94%, a growth at 100 µM (MDA-MB-435) of -88% and a growth at 100 µM (UACC-257 [14]) of -97%. For the same compound, the growth at 100 µM (UACC-62 [15]) was -96%, the growth at 100 µM (OVCAR-8 [16]) was -92% and the growth at 100 µM (NCI/ADR-RES) was -19%. For the same compound, the growth at 100 µM (A498 [17]) was -98% and the growth at 100 µM (Hs-578T [18]) was -22%.
Compound `COc1cc2c(cc1OC)C(=O)/C(=C/c1cc(-c3ccc4c(c3)OCO4)n[nH]1)C2` has a GI50 (HL-60(TB) [1]) of 2.07 µM, an LC50 (HL-60(TB) [1]) greater than 100 µM and a TGI (HL-60(TB) [1]) of 5.59 µM. For the same compound, the GI50 (HCC 2998) was 1.88 µM, the LC50 (HCC 2998) was 6.29 µM and the TGI (HCC 2998) was 3.44 µM. For the same compound, the GI50 (HCT-15) was 1.12 µM, the LC50 (HCT-15) was 7.07 µM and the TGI (HCT-15) was 2.81 µM. For the same compound, the GI50 (KM12 [2]) was 1.29 µM, the LC50 (KM12 [2]) was 5.75 µM and the TGI (KM12 [2]) was 2.73 µM. The GI50 (SNB-19) was 1.55 µM, the TGI (SNB-19) was 2.96 µM and the CC50 (SNB-19) was 5.63 µM. The GI50 (UACC-257 [3]) was 1.71 µM, the LC50 (UACC-257 [3]) was 5.72 µM and the TGI (UACC-257 [3]) was 3.13 µM. The GI50 (SN12C) was 1.59 µM, the LC50 (SN12C) was 5.62 µM and the TGI (SN12C) was 2.99 µM. It also gave a growth at 0.01 µM (OVCAR-5) of 102%, a growth at 0.01 µM (Malme-3M) of 93% and a growth at 0.01 µM (NCI-H522 [4]) of 91%. The growth at 0.01 µM (RXF 393) was 97%, the growth at 0.01 µM (Hs-578T [5]) was 95% and the growth at 0.1 µM (K562 [6]) was 94%. It also gave a growth at 0.1 µM (HCT-116) of 105%, a growth at 0.1 µM (SF-268) of 96% and a growth at 0.1 µM (ACHN) of 100%. For the same compound, the growth at 0.1 µM (PC-3) was 89%, the growth at 1 µM (KM12 [7]) was 67% and the growth at 10 µM (HL-60(TB) [8]) was -29%. It also gave a growth at 10 µM (NCI-H322M) of -90%, a growth at 10 µM (UACC-62 [9]) of -96% and a growth at 10 µM (OVCAR-8 [10]) of -89%. It also gave a growth at 10 µM (A498 [11]) of -84%, a growth at 10 µM (DU-145) of -92% and a growth at 10 µM (MDA-MB-231) of -87%. The growth at 100 µM (K562 [12]) was 4%, the growth at 100 µM (NCI-H226) was -46% and the growth at 100 µM (NCI-H23) was -78%. The growth at 100 µM (NCI-H522 [13]) was -92%, the growth at 100 µM (MDA-MB-435) was -95% and the growth at 100 µM (UACC-257 [14]) was -95%. It also gave a growth at 100 µM (UACC-62 [15]) of -88%, a growth at 100 µM (OVCAR-8 [16]) of -94% and a growth at 100 µM (NCI/ADR-RES) of -40%. It also gave a growth at 100 µM (A498 [17]) of -97% and a growth at 100 µM (Hs-578T [18]) of -15%.
